Measurements reported in patent publication US20210253575A1, “PYRROLIDINE AMINE COMPOUNDS FOR THE TREATMENT OF AUTOIMMUNE DISEASE” (Hoffmann-La Roche Inc., priority 2018, published 2021).

Each molecule was assayed against T1, human TLR9 (Homo sapiens, UniProt Q9NR96) (assay: HEK293-Blue-hTLR-9 cells assay (SEAP reporter, ODN2006 stimulation)). Conditions: HEK293-Blue-hTLR9 cells, ODN2006 ligand, 20 hrs incubation.
T1 sequence (Q9NR96 26-1032): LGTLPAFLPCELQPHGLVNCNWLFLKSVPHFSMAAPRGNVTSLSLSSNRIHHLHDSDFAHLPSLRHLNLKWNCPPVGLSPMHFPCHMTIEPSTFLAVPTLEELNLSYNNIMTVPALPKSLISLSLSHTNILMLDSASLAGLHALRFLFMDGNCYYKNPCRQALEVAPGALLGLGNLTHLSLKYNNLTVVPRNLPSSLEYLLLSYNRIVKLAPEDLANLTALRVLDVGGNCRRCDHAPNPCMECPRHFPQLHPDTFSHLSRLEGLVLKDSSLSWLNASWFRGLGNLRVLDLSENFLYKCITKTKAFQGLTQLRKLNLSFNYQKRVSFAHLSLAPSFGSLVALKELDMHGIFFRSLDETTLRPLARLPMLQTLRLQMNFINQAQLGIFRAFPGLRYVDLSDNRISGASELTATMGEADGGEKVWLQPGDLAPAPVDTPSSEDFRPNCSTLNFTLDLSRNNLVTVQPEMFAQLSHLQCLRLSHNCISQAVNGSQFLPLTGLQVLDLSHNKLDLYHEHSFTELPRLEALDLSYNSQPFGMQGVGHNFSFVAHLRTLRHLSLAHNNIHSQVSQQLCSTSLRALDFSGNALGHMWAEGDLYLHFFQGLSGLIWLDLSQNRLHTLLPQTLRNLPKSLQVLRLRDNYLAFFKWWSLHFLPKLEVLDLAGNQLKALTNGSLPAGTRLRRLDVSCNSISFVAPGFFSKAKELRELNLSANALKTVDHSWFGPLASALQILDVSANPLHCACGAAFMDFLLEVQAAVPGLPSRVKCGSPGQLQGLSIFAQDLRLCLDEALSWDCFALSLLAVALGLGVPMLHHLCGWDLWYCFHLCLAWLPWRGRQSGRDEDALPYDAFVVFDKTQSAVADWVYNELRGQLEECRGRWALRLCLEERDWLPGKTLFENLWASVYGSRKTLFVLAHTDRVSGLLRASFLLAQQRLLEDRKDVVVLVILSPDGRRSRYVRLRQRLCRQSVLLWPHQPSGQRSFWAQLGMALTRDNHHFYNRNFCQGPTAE
Type: cell-based
Protocol: The following tests were carried out in order to determine the activity of the compounds of formula (I) in HEK293-Blue-hTLR-7/8/9 cells assay.
HEK293-Blue-hTLR-9 Cells Assay:
A stable HEK293-Blue-hTLR-9 cell line was purchased from InvivoGen (Cat. #: hkb-htlr9, San Diego, Calif., USA). These cells were originally designed for studying the stimulation of human TLR9 by monitoring the activation of NF-κB. A SEAP (secreted embryonic alkaline phosphatase) reporter gene was placed under the control of the IFN-β minimal promoter fused to five NF-κB and AP-1-binding sites. The SEAP was induced by activating NF-κB and AP-1 via stimulating HEK-Blue hTLR9 cells with TLR9 ligands. Therefore the reporter expression was declined by TLR9 antagonist under the stimulation of a ligand, such as ODN2006 (Cat. #: tlrl-2006-1, Invivogen, San Diego, Calif., USA), for incubation of 20 hrs. The cell culture supernatant SEAP reporter activity was determined using QUANTI-Blue™ kit (Cat. #: rep-qb1, Invivogen, San Diego, Calif., USA) at a wavelength of 640 nm, a detection medium that turns purple or blue in the presence of alkaline phosphatase.
HEK293-Blue-hTLR9 cells were incubated at a density of 250,000˜450,000 cells/mL in a volume of 170 μL in a 96-well plate in Dulbecco's Modified Eagle's medium (DMEM) containing 4.5 g/L glucose, 50 U/mL penicillin, […], […], 2 mM L-glutamine, 10% (v/v) heat-inactivated fetal bovine serum with addition of 20 μL test compound in a serial dilution in the presence of final DMSO at 1% and 10 μL of 20 uM ODN2006 in above DMEM, perform incubation under 37° C. in a CO2incubator for 20 hrs. Then 20 μL of the superatant from each well was incubated with 180 μL Quanti-blue substrate solution at 37° C. for 2 hrs and the absorbance was read at 620˜655 nm using a spectrophotometer. The signalling pathway that TLR9 activation leads to downstream NF-κB activation has been widely accepted, and therefore similar reporter assay was modified for evaluating TLR9 antagonist.
`N#Cc1ccc(N2C[C@H](CN3CCC(N4CCCCCC4)CC3)[C@@H](C(F)(F)F)C2)c2nccnc12` [Example 62, 8-[(3S,4R)-3-[[4-(Azepan-1-yl)-1-piperidyl]methyl]-4-(trifluoromethyl)pyrrolidin-1-yl]quinoxaline-5-carbonitrile] gave an IC50 of 409 nM. In the case of `N#Cc1ccc(N2C[C@H](CN3CC4(CC(N)C4)C3)[C@@H](C(F)(F)F)C2)c2nccnc12` [Example 47, 8-[(3S,4R)-3-[(6-amino-2-azaspiro[3.3]heptan-2-yl)methyl]-4-(trifluoromethyl)pyrrolidin-1-yl]quinoxaline-5-carbonitrile], the IC50 is reported as 177 nM. `CC1(CN)CCCN(C[C@H]2CN(c3ccc(C#N)c4nccnc34)C[C@@H]2C(F)(F)F)C1` (stereo partly drawn) [Example 75, 8-[(3S,4R)-3-[[3-(aminomethyl)-3-methyl-1-piperidyl]methyl]-4-(trifluoromethyl)pyrrolidin-1-yl]quinoxaline-5-carbonitrile] gave an IC50 of 767 nM. In the case of `N#Cc1ccc(N2CC(CN3CCC(N)CC3)C3(CC3)C2)c2nccnc12` (centres unmarked) [Example 68, 8-[7-[(4-Amino-1-piperidyl)methyl]-5-azaspiro[2.4]heptan-5-yl]quinoxaline-5-carbonitrile], the IC50 is reported as 93 nM. Work on `N#Cc1ccc(N2CC(CN3CCC(N4CCCCC4)CC3)C3(CC3)C2)c2nccnc12` (centres unmarked) [Example 11, 8-[7-[[4-(1-Piperidyl)-1-piperidyl]methyl]-5-azaspiro[2.4]heptan-5-yl]quinoxaline-5-carbonitrile] yielded an IC50 of 125 nM. `N#Cc1ccc(N2C[C@H](CNC3CCNCC3)[C@@H](C(F)(F)F)C2)c2nccnc12` [Example 71, 8-[(3S,4R)-3-[(4-piperidylamino)methyl]-4-(trifluoromethyl)pyrrolidin-1-yl]quinoxaline-5-carbonitrile] was tested, and the IC50 was 87 nM. For `FC(F)(F)c1ccc(N2CC(CN3CCNCC3)C3(CC3)C2)c2nccnc12` (centres unmarked) [Example 20, 5-[7-(Piperazin-1-ylmethyl)-5-azaspiro[2.4]heptan-5-yl]-8-(trifluoromethyl)quinoxaline], the IC50 was 5640 nM. In the case of `CC1(N)CCN(CC2CN(c3ccc(C#N)c4nccnc34)CC23CC3)CC1` (centres unmarked) [Example 7, 8-[7-[(4-Amino-4-methyl-1-piperidyl)methyl]-5-azaspiro[2.4]heptan-5-yl]quinoxaline-5-carbonitrile], the IC50 is reported as 77 nM. Work on `N#Cc1ccc(N2CC(CNC3CCCNCC3)C3(CC3)C2)c2nccnc12` (centres unmarked) [Example 39, 8-[7-[(Azepan-4-ylamino)methyl]-5-azaspiro[2.4]heptan-5-yl]quinoxaline-5-carbonitrile] yielded an IC50 of 97 nM. Work on `C[C@H]1CN(c2ccc(C#N)c3ncccc23)C[C@@H]1CN1CCC2(CCNC2)C1` (stereo partly drawn) [Example 35, 5-[(3S,4R)-3-(2,7-diazaspiro[4.4]nonan-2-ylmethyl)-4-methyl-pyrrolidin-1-yl]quinoline-8-carbonitrile] yielded an IC50 of 50 nM. `N#Cc1ccc(N2C[C@H](CN3CC4(CCCNC4)C3)[C@@H](C(F)(F)F)C2)c2cccnc12` [Example 8, 5-[(3S,7R)-3-(2,8-diazaspiro[3.5]nonan-2-ylmethyl)-4-(trifluoromethyl)pyrrolidin-1-yl]quinoline-8-carbonitrile] was tested, and the IC50 was 113 nM. `N#Cc1ccc(N2C[C@H](CN3CCCC(C(N)=O)C3)[C@@H](C(F)(F)F)C2)c2nccnc12` (stereo partly drawn) [Example 69, 1-[[(3S,4R)-1-(S-cyanoquinoxalin-5-yl)-4-(trifluoromethyl)pyrrolidin-3-yl]methyl]piperidine-3-carboxamide] showed an IC50 of 15700 nM. In the case of `N#Cc1ccc(N2C[C@H](CN3C4CCC3CC(N)C4)[C@@H](C(F)(F)F)C2)c2nccnc12` (stereo partly drawn) [Example 63, 8-[(3S,4R)-3-[(3-amino-8-azabicyclo[3.2.1]octan-8-yl)methyl]-4-(trifluoromethyl)pyrrolidin-1-yl]quinoxaline-5-carbonitrile], the IC50 is reported as 294 nM. In the case of `N#Cc1ccc(N2CC(CN3C[C@H]4CNC[C@H]4C3)C3(CC3)C2)c2nccnc12` (stereo partly drawn) [Example 18, 8-[7-[[(3aR,6aS)-2,3,3a,4,6,6a-hexahydro-H-pyrrolo[3,4-c]pyrrol-5-yl]methyl]-5-azaspiro[2.4]heptan-5-yl]quinoxaline-5-carbonitrile], the IC50 is reported as 97 nM.
